Measurements reported in ChEMBL document CHEMBL3400004, “Novel fused tetrathiocines as antivirals that target the nucleocapsid zinc finger containing protein of the feline immunodeficiency virus (FIV) as a model of HIV infection” (Bioorg Med Chem Lett, 2015).

Tests used:
[1] = Cytotoxicity against cat CRFK cells assessed as cell viability at 10 uM after 24 hrs by MTT assay; type: cell-based, Felis catus; conditions: read-out: Activity
[2] = Cytotoxicity against IL2-independent cat FL-4 cells assessed as reduction in cell viability after 7 days by MTT assay; type: cell-based, Felis catus; conditions: IL2-independent FL-4 cells
[3] = system: Feline immunodeficiency virus; assay: Antiviral activity against Feline immunodeficiency virus infected in cat FL-4 cells assessed as inhibition of viral replication after 7 days by quantitative RT-PCR analysis; type: functional, organism-based; conditions: FL-4, 168 h
[4] = Therapeutic index, ratio of CC50 for cat FL-4 cells to EC50 for Feline immunodeficiency virus infected in cat FL-4 cells; type: cell-based; conditions: read-out: Ratio CC50/EC50

EC50 [3] [µM] | Structure (SMILES) | viability at 24 h, 10 µM [1] [%] | CC50 at 168 h [2] [µM] | selectivity ratio [4]
0.205 | Cn1c(Cl)c2c(c1Cl)SSc1c(c(Cl)n(C)c1Cl)SS2 | > 100 | > 100 | > 489
> 100 | CCn1c(Cl)c2c(c1Cl)SSc1c(c(Cl)n(CC)c1Cl)SS2 | > 100 | > 100 | 1
60.7 | CCn1c(C)c2c(c1C)SSc1c(c(C)n(CC)c1C)SS2 | > 100 | > 100 | 1.6
3.08 | Cc1c2c(c(C)n1Cc1ccccc1)SSc1c(c(C)n(Cc3ccccc3)c1C)SS2 | > 100 | 58.2 | 18.9
> 100 | CCN(CC)c1sc(N(CC)CC)c2c1SSc1c(N(CC)CC)sc(N(CC)CC)c1SS2 | > 100 | > 100 | 1
0.0429 | Cn1c2c(c3ccccc31)SSc1c(c3ccccc3n1C)SS2 | > 100 | > 100 | > 2330
14.5 | CC(C)(C)n1cc2c(c1)SSc1cn(C(C)(C)C)cc1SS2 | > 100 | > 100 | > 6.9

More lines, now with the values behind:

Structure (SMILES) | EC50 [3] [µM] | viability at 24 h, 10 µM [1] [%] | CC50 at 168 h [2] [µM] | selectivity ratio [4]
Cc1cn([C@H]2C[C@H](N=[N+]=[N-])[C@@H](CO)O2)c(=O)[nH]c1=O [ZIDOVUDINE] | – | > 100 | > 100 | > 18.8
Cc1nnc(C(=O)NC(C)(C)c2nc(C(=O)NCc3ccc(F)cc3)c(O)c(=O)n2C)o1 [RALTEGRAVIR] | – | > 100 | > 100 | > 10000
c1c2c(cc3c1SSc1cc4c(cc1SS3)OCCO4)OCCO2 | 0.0689 | 91.1 | > 100 | > 1450
COc1cc2c(cc1OC)SSc1cc(OC)c(OC)cc1SS2 | 0.0309 | 75.3 | > 100 | > 3240
c1c2c(cc3c1SSc1cc4c(cc1SS3)OCO4)OCO2 | 0.0932 | 77 | 5.79 | 62.1
